One experiment concerns the target GSK 3α (Homo sapiens (Human), UniProt P49840). In words: GSK 3α enzyme inhibition (FRET, Z-LYTE, Method 2). Format: biochemical. To be noted: read-out: IC50 Values for Enzyme Inhibition, GSK3α. As to the method: The enzyme inhibitory activities of compounds disclosed herein are determined by FRET using synthetic peptides labelled with both donor and acceptor fluorophores (Z-LYTE, Invitrogen Ltd., Paisley, UK).
The following two assay variants can be used for determination of GSK 3α inhibition.
The inhibitory activities of compounds of the invention against the GSK 3α enzyme isoform (Invitrogen), are evaluated by determining the level of activation/phosphorylation of the target peptide. The GSK3-α protein (500 ng/mL, 2.5 μL) is mixed with the test compound (2.5 μL at either 4 μg/mL, 0.4 μg/mL, 0.04 μg/mL, or 0.004 μg/mL) for 2 hr at RT. The FRET peptide (8 μM, 2.5 μL), which is a phosphorylation target for GSK3α, and ATP (40 μM, 2.5 μL) are then added to the enzyme/compound mixture and the resulting mixture incubated for 1 hr. Development reagent (protease, 5 μL) is added for 1 hr prior to detection in a fluorescence microplate reader (Varioskan® Flash, ThermoFisher Scientific).
In all cases, the site-specific protease cleaves non-phosphorylated peptide only and eliminates the FRET signal. Phosphorylation levels of each reaction are calculated using the ratio of coumarin emission (donor) over fluorescein emission (acceptor), for which high ratios indicate high phosphorylation and low ratios indicate low phosphorylation levels. The percentage inhibition of each reaction is calculated relative to non-inhibited control and the 50% inhibitory concentration (IC50 value) is then calculated from the concentration-response curve.
This method follows the same steps as Method 1 above, but utilises a shorter period of mixing of the test compound (105 minutes instead of 2 hours) with the GSK3-α protein.

A further experiment deals with PBMCs. The experiment can be described thus: LPS-induced IL-8 release in PBMC cells (assay b). Type of experiment: cell-based, human. The following applies: LPS-stimulated PBMCs, read-out: IC50 Values for Inhibition of Cytokine Release, PBMCs IL-8. As for the experimental part: Peripheral blood mononuclear cells (PBMCs) from healthy subjects are separated from whole blood using a density gradient (Lymphoprep, Axis-Shield Healthcare). The PBMCs are seeded in 96 well plates and treated with compounds at the desired concentration for 2 hours before addition of 1 ng/mL LPS (Escherichia Coli 0111:B4 from Sigma Aldrich) for 24 hours under normal tissue culture conditions (37° C., 5% CO2). The supernatant is harvested for determination of IL-8 and TNFα concentrations by sandwich ELISA (Duo-set, R&D systems) and read on the fluorescence microplate reader (Varioskan® Flash, ThermoFisher Scientific). The concentration at 50% inhibition (IC50) of IL-8 and TNFα production is calculated from the dose response curve.

Here are results for 20 compounds from patent publication US9890185B2, “Urea derivatives useful as kinase inhibitors” (Respivert Limited, priority 2013, dated 2018).

Like-named read-outs stand apart in the source and are kept apart here.

Chain of GSK 3α (P49840 whole entry): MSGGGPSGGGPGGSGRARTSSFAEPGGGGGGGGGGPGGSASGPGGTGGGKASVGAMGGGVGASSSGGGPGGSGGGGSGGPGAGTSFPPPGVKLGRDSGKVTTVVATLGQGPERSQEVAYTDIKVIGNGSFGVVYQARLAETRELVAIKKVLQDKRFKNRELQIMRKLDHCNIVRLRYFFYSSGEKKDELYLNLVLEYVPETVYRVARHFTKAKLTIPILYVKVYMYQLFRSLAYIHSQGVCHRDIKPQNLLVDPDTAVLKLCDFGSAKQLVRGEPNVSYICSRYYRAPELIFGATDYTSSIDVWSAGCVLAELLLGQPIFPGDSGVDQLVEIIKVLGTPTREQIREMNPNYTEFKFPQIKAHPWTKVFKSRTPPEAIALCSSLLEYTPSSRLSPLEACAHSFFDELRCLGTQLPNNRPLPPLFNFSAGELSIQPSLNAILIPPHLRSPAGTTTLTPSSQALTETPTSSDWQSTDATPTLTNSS

Regarding `COc1c(NC(=O)Nc2ccc(Oc3ccnc(Nc4ccccc4)c3)c3ccccc23)cc(C(C)(C)C)cc1[S+](C)[O-]` (single isomer, unassigned) [38(b2), 1-(5-(tert-Butyl)-2-methoxy-3-(methylsulfinyl)phenyl)-3-(4-((2-(phenylamino)pyridin-4-yl)oxy)naphthalen-1-yl)urea], the IC50 was greater than 11.1 µM at GSK 3α and 0.006 µM with PBMCs (Homo sapiens, PBMC).

`COc1c(NC(=O)Nc2ccc(Oc3ccnc(Nc4ccc5c(c4)C(=O)NC5)n3)c3ccccc23)cc(C(C)(C)C)cc1P(C)(C)=O` [15(ab), 1-(5-(tert-butyl)-3-(dimethylphosphoryl)-2-methoxyphenyl)-3-(4-((2-((3-oxoisoindolin-5-yl)amino)pyrimidin-4-yl)oxy)naphthalen-1-yl)urea]: the half-inhibitory concentration (IC50) at GSK 3α came to 0.097 µM; in the experiment on PBMCs (Homo sapiens, PBMC) it was 0.0055 µM.

With `CCP(=O)(CC)c1cc(C(C)(C)C)cc(NC(=O)Nc2ccc(Oc3ccnc(Nc4ccccc4)c3)c3ccccc23)c1OC` [15(ac), 1-(5-(tert-butyl)-3-(diethylphosphoryl)-2-methoxyphenyl)-3-(4-((2-(phenylamino)-pyridin-4-yl)oxy)naphthalen-1-yl)urea], the IC50 on GSK 3α is greater than 14.7 µM; in the experiment with PBMCs (Homo sapiens, PBMC), 0.0091 µM.

As for `COc1c(NC(=O)Nc2ccc(Oc3ccnc(Nc4cncc(N(C)C)n4)c3)c3ccccc23)cc(C(C)(C)C)cc1P(C)(C)=O` [15(ae), 1-(5-(tert-butyl)-3-(dimethylphosphoryl)-2-methoxyphenyl)-3-(4-((2-((6-(dimethylamino)pyrazin-2-yl)amino)pyridin-4-yl)oxy)naphthalen-1-yl)urea], the IC50 on GSK 3α came to 0.871 µM; in the experiment on PBMCs (Homo sapiens, PBMC), 0.0039 µM.

For the compound `COc1c(NC(=O)Nc2ccc(Oc3ccnc(Nc4ccccc4)c3)c3ccccc23)cc(C(C)(C)C)cc1C(=O)NCCN1CCCC1` [15(ag), 5-(tert-butyl)-2-methoxy-3-(3-(4-((2-(phenylamino)pyridin-4-yl)oxy)naphthalen-1-yl)ureido)-N-(2-(pyrrolidin-1-yl)ethyl)benzamide], the IC50 on GSK 3α came to 5.81 µM; with PBMCs (Homo sapiens, PBMC) it was 0.0098 µM.

With `COc1c(NC(=O)Nc2ccc(Oc3ccnc(NC4CCN(C)CC4)n3)c3ccccc23)cc(C(C)(C)C)cc1P(C)(C)=O` [15(ah), 1-(5-(tert-butyl)-3-(dimethylphosphoryl)-2-methoxyphenyl)-3-(4-((2-((1-methylpiperidin-4-yl)amino)pyrimidin-4-yl)oxy)naphthalen-1-yl)urea], the half-maximal inhibitory concentration (IC50) at GSK 3α was 0.602 µM; in the experiment on PBMCs (Homo sapiens, PBMC), 0.299 µM.

Regarding `COc1c(NC(=O)Nc2ccc(Oc3ccnc(N[C@@H]4CCOC4)n3)c3ccccc23)cc(C(C)(C)C)cc1P(C)(C)=O` [15(ai), (R)-1-(5-(tert-butyl)-3-(dimethylphosphoryl)-2-methoxyphenyl)-3-(4-((2-((tetrahydrofuran-3-yl)amino)pyrimidin-4-yl)oxy)naphthalen-1-yl)urea], the IC50 was 0.127 µM at GSK 3α and 0.0037 µM with PBMCs (Homo sapiens, PBMC).

As for `COc1c(NC(=O)Nc2ccc(Oc3ccnc(N[C@H]4CCOC4)n3)c3ccccc23)cc(C(C)(C)C)cc1P(C)(C)=O` [15(aj), (S)-1-(5-(tert-butyl)-3-(dimethylphosphoryl)-2-methoxyphenyl)-3-(4-((2-((tetrahydrofuran-3-yl)amino)pyrimidin-4-yl)oxy)naphthalen-1-yl)urea], the half-inhibitory concentration (IC50) on GSK 3α was determined as 0.068 µM; in the experiment with PBMCs (Homo sapiens, PBMC) it was 0.0018 µM.

In the case of `COc1c(NC(=O)Nc2ccc(Oc3ccnc(NCCN4CCOCC4)n3)c3ccccc23)cc(C(C)(C)C)cc1P(C)(C)=O` [15(al), 1-(5-(tert-butyl)-3-(dimethylphosphoryl)-2-methoxyphenyl)-3-(4-((2-((2-morpholinoethyl)amino)pyrimidin-4-yl)oxy)naphthalen-1-yl)urea], the IC50 at GSK 3α turned out to be 0.339 µM; in the experiment with PBMCs, 0.0037 µM.

In the case of `COc1c(NC(=O)Nc2ccc(Oc3ccnc(Nc4cc(C)cc(Cl)c4)c3)c3ccccc23)cc(C(C)(C)C)cc1P(C)(C)=O` [15(am), 1-(5-(tert-butyl)-3-(dimethylphosphoryl)-2-methoxyphenyl)-3-(4-((2-((3-chloro-5-methylmethylphenyl)amino)pyridin-4-yl)oxy)naphthalen-1-yl)urea], the IC50 with PBMCs (Homo sapiens, PBMC) turned out to be 0.0061 µM.

In the case of `COc1c(NC(=O)Nc2ccc(Oc3ccnc(NCCn4cccn4)n3)c3ccccc23)cc(C(C)(C)C)cc1P(C)(C)=O` [15(ao), 1-(4-((2-((2-(1H-pyrazol-1-yl)ethyl)amino)pyrimidin-4-yl)oxy)naphthalen-1-yl)-3-(5-(tert-butyl)-3-(dimethylphosphoryl)-2-methoxyphenyl)urea], the IC50 at GSK 3α worked out at 0.387 µM; in the experiment with PBMCs (Homo sapiens, PBMC), 0.0041 µM.

For the compound `Cc1c(NC(=O)Nc2ccc(Oc3ccnc(Nc4ccccc4)c3)c3ccccc23)cc(C(C)(C)C)cc1P(C)(C)=O` [15(ap), 1-(5-(tert-butyl)-3-(dimethylphosphoryl)-2-methylphenyl)-3-(4-((2-(phenylamino)pyridin-4-yl)oxy)naphthalen-1-yl)urea], the IC50 at GSK 3α was greater than 16.9 µM; with PBMCs (Homo sapiens, PBMC), 0.0483 µM.

Turning to `COc1cc(Nc2cc(Oc3ccc(NC(=O)Nc4cc(C(C)(C)C)cc(C(=O)NCCN5CCNCC5)c4OC)c4ccccc34)ccn2)cc(OC)c1` [79(h), 5-(tert-Butyl)-3-(3-(4-((2-((3,5-dimethoxyphenyl)amino)pyridin-4-yl)oxy)naphthalen-1-yl)ureido)-2-methoxy-N-(2-(piperazin-1-yl)ethyl)benzamide], the concentration for half-maximal inhibition (IC50) with PBMCs (Homo sapiens, PBMC) was determined as 0.0164 µM.

For `COc1cc(Nc2nccc(Oc3ccc(NC(=O)Nc4cc(C(C)(C)C)cc(S(C)(=O)=O)c4OC)c4ccccc34)n2)ccc1C(=O)O` [79(i), 4-((4-((4-(3-(5-(tert-Butyl)-2-methoxy-3-(methylsulfonyl)phenyl)ureido)naphthalen-1-yl)oxy)pyrimidin-2-yl)amino)-2-methoxybenzoic acid], the 50% inhibitory concentration (IC50) with PBMCs (Homo sapiens, PBMC) is 0.0122 µM.

For `COc1cc(Nc2nccc(Oc3ccc(NC(=O)Nc4cc(C(C)(C)C)cc([S+](C)[O-])c4OC)c4ccccc34)n2)ccc1C(=O)O` (stereo not shown) [79(j), 4-((4-((4-(3-(5-(tert-Butyl)-2-methoxy-3-(methylsulfinyl)phenyl)ureido)naphthalen-1-yl)oxy)pyrimidin-2-yl)amino)-2-methoxybenzoic acid], in the experiment on PBMCs (Homo sapiens, PBMC), the IC50 was 0.0153 µM.

For `COc1cc(Nc2cc(Oc3ccc(NC(=O)Nc4cc(C(C)(C)C)cc(P(C)(C)=O)c4OC)c4ccccc34)ccn2)cc(C(=O)N(C)CCN2CCN(C)CC2)c1` [79(k), 3-((4-((4-(3-(5-(tert-Butyl)-3-(dimethylphosphoryl)-2-methoxyphenyl)ureido)naphthalen-1-yl)oxy)pyridin-2-yl)amino)-5-methoxy-N-methyl-N-(2-(4-methylpiperazin-1-yl)ethyl)benzamide], in the experiment with PBMCs (Homo sapiens, PBMC), the IC50 is 0.007 µM.

As to `COc1cc(Nc2cc(Oc3ccc(NC(=O)Nc4cc(C(C)(C)C)cc(P(C)(C)=O)c4OC)c4ccccc34)ccn2)cc(C(=O)N(C)CCC2CCN(C)CC2)c1` [79(l), 3-((4-((4-(3-(5-(tert-Butyl)-3-(dimethylphosphoryl)-2-methoxyphenyl)ureido)naphthalen-1-yl)oxy)pyridin-2-yl)amino)-5-methoxy-N-methyl-N-(2-(1-methylpiperidin-4-yl)ethyl)benzamide], the IC50 with PBMCs (Homo sapiens, PBMC) came to 0.0225 µM.

For `COCCOCCOCCNC(=O)c1cc(Nc2nccc(Oc3ccc(NC(=O)Nc4cc(C(C)(C)C)cc(CNC(=O)CN(C)C)c4OC)c4ccccc34)n2)cc(OC)c1` [Example 81, 3-((4-((4-(3-(5-(tert-Butyl)-3-((2-(dimethylamino)acetamido)methyl)-2-methoxyphenyl)ureido)-naphthalen-1-yl)oxy)pyrimidin-2-yl)amino)-5-methoxy-N-(2-(2-(2-methoxyethoxy)ethoxy)-ethyl)benzamide], in the experiment on PBMCs (Homo sapiens, PBMC), the IC50 was found to be 0.0004 µM.

As for `COCCOCCOCCNC(=O)c1cc(Nc2cc(Oc3ccc(NC(=O)Nc4cc(C(C)(C)C)cc(CN5CCN(C)CC5)c4OC)c4ccccc34)ccn2)cc(OC)c1` [Example 82, 3-((4-((4-(3-(5-(tert-Butyl)-2-methoxy-3-((4-methylpiperazin-1-yl)methyl)phenyl)ureido)-naphthalen-1-yl)oxy)pyridin-2-yl)amino)-5-methoxy-N-(2-(2-(2-methoxyethoxy)ethoxy)ethyl)-benzamide], in the experiment on PBMCs (Homo sapiens, PBMC), the concentration for half-maximal inhibition (IC50) came out at 0.0017 µM.

`COc1cc(Nc2nccc(Oc3ccc(NC(=O)Nc4cc(C(C)(C)C)cc([S+](C)[O-])c4OC)c4ccccc34)n2)cc(C(=O)NCCN2CCN(C)CC2)c1` (stereo not shown) [Example 83, 3-((4-((4-(3-(5-(tert-Butyl)-2-methoxy-3-(methylsulfinyl)phenyl)ureido)naphthalen-1-yl)oxy)pyrimidin-2-yl)amino)-5-methoxy-N-(2-(4-methylpiperazin-1-yl)ethyl)benzamide]: the IC50 in the experiment with PBMCs (Homo sapiens, PBMC) amounted to 0.0015 µM.

The term IC50 denotes the midpoint of a concentration-inhibition curve.
